For data set [1] the following is noted: 298.15 K; 101.33 kPa; Liquid; Vibrating tube method.
Data set [2] in a line: refractive index (Na D-line) (dimensionless). The note with it: 298.15 K; 101.33 kPa; Liquid; Standard Abbe refractometry.

The results in this text go back to the NIST ThermoML archive (doi:10.1016/j.jct.2014.01.022).

By mass density is commonly meant mass per unit of volume. What is called refractive index is a measure of how strongly the sample bends light.

Numbers after ± are expanded uncertainties.

Turning to `CCCn1cc[n+](C)c1.O=S(=O)([N-]S(=O)(=O)C(F)(F)F)C(F)(F)F`, the mass density in data set [1] stood at 1474.44 ± 0.33 kg/m3. In addition, the refractive index in data set [2] is recorded as 1.42526 ± 0.00033.

On to `CCCCCCCC` [octane], for which the mass density in data set [1] was determined as 698.6 ± 0.25 kg/m3. In addition, in data set [2], the refractive index is reported as 1.39519 ± 0.00037.

As to `CCCCCCCCC` [nonane], in data set [1], the mass density is 713.9 ± 0.17 kg/m3. In addition, the refractive index in data set [2] is reported as 1.40326 ± 0.00031.

Take `CCc1ccccc1` [ethylbenzene]: in data set [1], the mass density is reported as 862.51 ± 0.24 kg/m3. Moreover, in data set [2], the refractive index came out at 1.49304 ± 0.00037.

Turning to `Cc1ccccc1` [toluene], the mass density in data set [1] is 862.17 ± 0.13 kg/m3. Further, the refractive index in data set [2] was determined as 1.49399 ± 0.00031.

Regarding `CCCC[n+]1ccn(C)c1.O=S(=O)([N-]S(=O)(=O)C(F)(F)F)C(F)(F)F`, the mass density in data set [1] was 1436.35 ± 0.22 kg/m3. Besides, the refractive index in data set [2] is reported as 1.42706 ± 0.00031.

For the compound `c1ccccc1` [benzene], the mass density in data set [1] is given as 873.57 ± 0.24 kg/m3. Further, the refractive index in data set [2] is recorded as 1.49774 ± 0.00037.
